Measurements as given in patent US20240207395A1, “ADJUVANT ACTIVITY ENHANCER AND ADJUVANT COMPOSITION” (priority 2021, published 2024).
Ends that are not written are not given here. C10PNA = 10-mer peptide nucleic acid with ten cytosine bases

How the values were obtained:
[1] = system: A/Kansas/14/2017 strain (A/H3N2); type: in vivo, BALB/c mice; details: for GMT (geometric mean IgG antibody titer) / GMT ratio to the non-adjuvanted group: BALB/c mice; for GMT (geometric mean IgG antibody titer): subcutaneous 0.1 mL, 0.6 μg HA/strain, serum 21 days after administration; for GMT ratio to the non-adjuvanted group: subcutaneous
[2] = system: B/Maryland/15/2016 strain (B/Victoria); type: in vivo, BALB/c mice; details: for GMT (geometric mean IgG antibody titer) / GMT ratio to the non-adjuvanted group: BALB/c mice; for GMT (geometric mean IgG antibody titer): subcutaneous 0.1 mL, 0.6 μg HA/strain, serum 21 days after administration; for GMT ratio to the non-adjuvanted group: subcutaneous

| Substance | GMT (geometric mean IgG antibody titer) [1] | GMT ratio to the non-adjuvanted group ([1]; Day 21) | Subclass ratio of IgG1/IgG2a ([1]; Day 21) | GMT (geometric mean IgG antibody titer) [2] | GMT ratio to the non-adjuvanted group ([2]; Day 21) | Subclass ratio of IgG1/IgG2a ([2]; Day 21) |
| --- | --- | --- | --- | --- | --- | --- |
| 5′-[…]-3′ (SEQ ID NO: 9) [ODN1826] | 65838 | 5.1 | IgG2a dominant | 31152 | 2.1 | IgG2a dominant |
| MIP-03: HIV TAT-derived peptide of 13 amino acids (SEQ ID NO: 1) covalently bound at its C-terminal to C10PNA (GRKKRRQRRRPPQ-C10PNA) | 112071 | 8.7 | – | 25802 | 1.7 | – |
